According to US20200009173A1, “TRIAZOLE-CONTAINING MACROLIDES AND OPHTHALMIC USES THEREFOR” (Tetard, Inc., priority 2017, published 2020):
≈ marks a conversion by molar mass, not a printed value.

Legend:
[1] = system: phagocytized L. monocytogenes; assay: Activity against phagocytized L. monocytogenes; format: cell-based
H. influenzae = assay: MICs of solithromycin and comparator drugs, H. influenzae (30 species); format: cell-based
Description: (§1) EXAMPLE. The formulations described herein show overall higher potency against ocular pathogens than commercial standards.
(§2) MICs (μg/ml) of Solithromycin and Comparator Drugs against Bacterial Species

Chlamydia trachomatis = assay: MIC, Chlamydia trachomatis; format: cell-based; conditions: N = 10
Mycoplasma hominis = assay: MIC, Mycoplasma hominis; format: cell-based; conditions: N = 13
Peptostreptococcus spp. = assay: MIC, Peptostreptococcus spp.; format: cell-based; conditions: N = 10
Corynebacterium spp. = assay: MIC, Corynebacterium spp.; format: cell-based; conditions: N = 10
CXCL8 = CXCL8 (IL-8) production in LPS-stimulated PMA-differentiated U937 cells (ELISA); format: cell-based, human
Protocol: EXAMPLE. […] Cells. The human monocytic cell line U937 was obtained from the American Type Culture Collection (ATCC, Rockville, Md.). PBMCs from COPD patients were obtained from Brompton hospital and separated by AccuSPIN (Sigma-Aldrich). […] U937 cells were differentiated into adherent macrophage-like morphology by exposure to PMA (50 ng/ml) for 48 h in complete growth medium. Cell viability was assessed microscopically by trypan blue staining. Cell toxicity was determined by MTT assay as needed. This study was approved by the ethics committee of the Royal Brompton Hospitals, and all subjects gave written informed consent. Cytokine ELISA. TNFα and IL-8 concentrations in the supernatant of cell cultures were determined by sandwich ELISA according to the manufacturer's instructions (R&D Systems Europe, Abingdon, UK). Statistical analysis. The results were expressed as the mean±SEM. Comparisons of data in two groups were performed using the Student's t test or the Wilcoxon signed rank test. Multiple comparisons were made by one-way ANOVA with post hoc test (Dunnett's) as appropriate. The difference was considered significant at p<0.05. […] Anti-inflammatory effects of solithromycin in U937 cells.

[2] = MIC in the presence of serum; format: cell-based; conditions: 10% serum
[3] = Protein binding in plasma; format: in vitro ADME
Streptococcus mitis = assay: MIC, Streptococcus mitis; format: cell-based; conditions: N = 73
Ureaplasma urealyticum = assay: MIC, Ureaplasma urealyticum; format: cell-based; conditions: N = 10
Moraxella catarrhalis = assay: MIC, Moraxella catarrhalis; format: cell-based; conditions: N = 21
S. pneumoniae = assay: MICs of solithromycin and comparator drugs, S. pneumoniae (30 species); format: cell-based
Description: as §1, §2

P. Acnes = assay: MICs of solithromycin and comparator drugs against P. acnes; format: cell-based
Description: EXAMPLE. The formulations described herein show overall higher potency against ocular pathogens than commercial standards. MICs (μg/ml) of Solithromycin and Comparator Drugs against P. Acnes (51 Species)

MSSA = assay: MICs of solithromycin and comparator drugs, MSSA (31 species); format: cell-based
Description: as §1, §2

Streptococcus agalactiae = assay: MIC, Streptococcus agalactiae; format: cell-based; conditions: N = 535
Mycobacterium avium = assay: MIC, Mycobacterium avium; format: cell-based; conditions: N = 30
[4] = speed of uptake and ultimate tissue concentration
MMP9 = MMP9 activity in PMA-stimulated U937 cells (gelatin zymography); format: cell-based, human; conditions: Homo sapiens, U-937
Protocol: EXAMPLE. […] Cells. The human monocytic cell line U937 was obtained from the American Type Culture Collection (ATCC, Rockville, Md.). PBMCs from COPD patients were obtained from Brompton hospital and separated by AccuSPIN (Sigma-Aldrich). […] U937 cells were differentiated into adherent macrophage-like morphology by exposure to PMA (50 ng/ml) for 48 h in complete growth medium. Cell viability was assessed microscopically by trypan blue staining. Cell toxicity was determined by MTT assay as needed. This study was approved by the ethics committee of the Royal Brompton Hospitals, and all subjects gave written informed consent. Zymography. MMP9 enzyme activity was measured by gelatin zymography. […] After electrophoresis, gels were incubated and rinsed with Novex® zymogram renaturing buffer (Invitrogen) for 30 min at room temperature. The gels were then rinsed in Novex® zymogram developing buffer (Invitrogen) for 30 min at room temperature prior to overnight incubation in the developing buffer at 37° C. After incubation, the gels were stained using a Colloidal Blue Staining Kit (Invitrogen) to visualize the zymogen bands. Statistical analysis. The results were expressed as the mean±SEM. Comparisons of data in two groups were performed using the Student's t test or the Wilcoxon signed rank test. Multiple comparisons were made by one-way ANOVA with post hoc test (Dunnett's) as appropriate. The difference was considered significant at p<0.05.

Streptococcus pyogenes = assay: MIC, Streptococcus pyogenes; format: cell-based
[5] = Cutibacterium acnes, 51 species

In the case of `CC[C@H]1OC(=O)[C@@](C)(F)C(=O)[C@H](C)[C@@H](O[C@@H]2O[C@H](C)C[C@H](N(C)C)[C@H]2O)[C@](C)(OC)C[C@@H](C)C(=O)[C@H](C)[C@H]2N(CCCCn3cc(-c4cccc(N)c4)nn3)C(=O)O[C@]12C` [CEM-101, solithromycin], the “potency relative to azithromycin” value [1] is reported as 50 fold, the “I (intermediate susceptibility)” value (H. influenzae) is reported as 0% and the “MIC Range” value (H. influenzae) is reported as 1 to 4 mg/L. The “NS (not susceptible)” value (H. influenzae) was 0%, the “S (susceptible)” value (H. influenzae) was 100% and the MIC50 (H. influenzae; Haemophilus influenzae) was 2 mg/L (≈ 2.37 µM). The MIC90 (H. influenzae; Haemophilus influenzae) was 2 mg/L (≈ 2.37 µM), the MIC50 (Chlamydia trachomatis; Chlamydia trachomatis) was 0.25 mg/L (≈ 0.296 µM) and the MIC90 (Chlamydia trachomatis; Chlamydia trachomatis) was 0.25 mg/L (≈ 0.296 µM). For the same compound, the “MIC Range” value (Chlamydia trachomatis) was 0.125 to 0.5 mg/L, the MIC50 (Mycoplasma hominis; Metamycoplasma hominis) was 0.004 mg/L (≈ 0.00473 µM) and the MIC90 (Mycoplasma hominis; Metamycoplasma hominis) was 0.008 mg/L (≈ 0.00947 µM). For the same compound, the “MIC Range” value (Mycoplasma hominis) was 0.002 to 0.008 mg/L, the “MIC Range” value (Peptostreptococcus spp.) was ≤0.03-0.25^ μg/mL and the MIC50 (Peptostreptococcus spp.; Peptostreptococcus) was 0.06 mg/L (≈ 0.071 µM). The MIC90 (Peptostreptococcus spp.; Peptostreptococcus) was 0.25 mg/L (≈ 0.296 µM), the MIC50 (Corynebacterium spp.; Corynebacterium) was 0.015 mg/L (≈ 0.0178 µM) and the MIC90 (Corynebacterium spp.; Corynebacterium) was 0.5 mg/L (≈ 0.592 µM). The “MIC Range” value (Corynebacterium spp.) was ≤0.008-16 ^ μg/mL, the IC50 (CXCL8; Homo sapiens, U-937, LPS, PMA-differentiated U937 cells, read-out: IC50 on CXCL8 release) was 78.2 ± 9.5 µM and the “effect on CXCL8 production” value (CXCL8; at 100 μM) was “significantly inhibited”. The “change in MIC in the presence of serum” value [2] was 2 fold, the fraction unbound [3] was 0.14 and the “MIC Range” value (Streptococcus mitis) was ≤0.03-0.25^ μg/mL. For the same compound, the MIC50 (Streptococcus mitis; Streptococcus mitis) was at most 0.03 mg/L, the MIC90 (Streptococcus mitis; Streptococcus mitis) was 0.06 mg/L (≈ 0.071 µM) and the “MIC Range” value (Ureaplasma urealyticum) was 0.004 to 0.063 mg/L. The MIC50 (Ureaplasma urealyticum; Ureaplasma urealyticum) was 0.008 mg/L (≈ 0.00947 µM), the MIC90 (Ureaplasma urealyticum; Ureaplasma urealyticum) was 0.031 mg/L (≈ 0.0367 µM) and the MIC50 (Moraxella catarrhalis; Moraxella catarrhalis) was 0.12 mg/L (≈ 0.142 µM). The MIC90 (Moraxella catarrhalis; Moraxella catarrhalis) was 0.12 mg/L (≈ 0.142 µM), the “MIC Range” value (Moraxella catarrhalis) was at most 0.008 to 0.5 mg/L and the “I (intermediate susceptibility)” value (S. pneumoniae) was 0%. For the same compound, the “MIC Range” value (S. pneumoniae) was ≤0.001-0.25 ^ μg/ml, the “NS (not susceptible)” value (S. pneumoniae) was 0% and the “S (susceptible)” value (S. pneumoniae) was 100%. The MIC50 (S. pneumoniae; Streptococcus pneumoniae) was 0.002 mg/L (≈ 0.00237 µM), the MIC90 (S. pneumoniae; Streptococcus pneumoniae) was 0.12 mg/L (≈ 0.142 µM) and the “MIC Range” value (P. Acnes) was at most 0.002 to 0.25 mg/L. The MIC50 (P. Acnes; [5]) was 0.015 mg/L (≈ 0.0178 µM), the MIC90 (P. Acnes; [5]) was 0.06 mg/L (≈ 0.071 µM) and the “I (intermediate susceptibility)” value (MSSA) was 0%. For the same compound, the “MIC Range” value (MSSA) was 0.004 to 64 mg/L, the “NS (not susceptible)” value (MSSA) was 6% and the “S (susceptible)” value (MSSA) was 94%. The MIC50 (MSSA; Staphylococcus aureus, MSSA) was 0.015 mg/L (≈ 0.0178 µM), the MIC90 (MSSA; Staphylococcus aureus, MSSA) was 0.03 mg/L (≈ 0.0355 µM) and the “MIC Range” value (Streptococcus agalactiae) was ≤0.03-0.5 ^ μg/mL. For the same compound, the MIC50 (Streptococcus agalactiae; Streptococcus agalactiae) was at most 0.03 mg/L, the MIC90 (Streptococcus agalactiae; Streptococcus agalactiae) was at most 0.03 mg/L and the MIC50 (Mycobacterium avium; Mycobacterium avium) was 1 mg/L (≈ 1.18 µM). For the same compound, the MIC90 (Mycobacterium avium; Mycobacterium avium) was 1 mg/L (≈ 1.18 µM), the “MIC Range” value (Mycobacterium avium) was 1 mg/L (≈ 1.18 µM) and the “tissue distribution relative to AZI” value [4] was 10 fold. The IC50 (MMP9) was 14.9 ± 3.1 µM, the “MIC Range” value (Streptococcus pyogenes; N = 407 (CEM-101)) was ≤0.03-0.5 ^ μg/mL and the MIC50 (Streptococcus pyogenes; Streptococcus pyogenes) was at most 0.03 mg/L. For the same compound, the MIC90 (Streptococcus pyogenes; Streptococcus pyogenes, 100 strains) was 0.03 mg/L (≈ 0.0355 µM) and the MIC90 (Streptococcus pyogenes; Streptococcus pyogenes, N = 407 (CEM-101), N = 100 (azithromycin)) was at most 0.03 mg/L.
